The MIC is the least concentration at which growth counts as inhibited. A high value points to a less susceptible organism.

Converted amounts (≈) assume the structure as drawn. “And” between values parts separate entries of the source, which are not always exact repeats. Equal entries are not always repeated.

What all share (assay): ≥ marks a high value that may be exact or a test limit, other limits are often not marked, values filed in µg/mL are converted to µM
Experiment [1] has as its system Escherichia coli.
Experiment [2] deals with Staphylococcus aureus.
In experiment [3] the test system is Pseudomonas aeruginosa.
The subject of experiment [4] is Staphylococcus aureus ATCC 29213.
The subject of experiment [5] is Pseudomonas aeruginosa ATCC 27853.
For experiment [6], the system named is Escherichia coli ATCC 25922.
For experiment [7], the system named is Staphylococcus epidermidis ATCC 12228.

Regarding `CSCC[C@H](NC(=O)[C@H](C)NC(=O)[C@H](CCC(=O)O)NC(=O)CNC(=O)[C@@H](NC(=O)[C@H](Cc1ccccc1)NC(=O)[C@H](C)NC(=O)[C@H](CCCCN)NC(=O)CNC(=O)[C@H](Cc1ccccc1)NC(=O)[C@H](CCCN=C(N)N)NC(=O)[C@H](CCCCN)NC(=O)[C@H](C)NC(=O)[C@H](CO)NC(=O)[C@H](Cc1cnc[nH]1)NC(=O)[C@H](CC(C)C)NC(=O)[C@H](Cc1ccccc1)NC(=O)[C@H](CCCCN)NC(=O)CNC(=O)[C@H](CC(C)C)NC(=O)CN)C(C)C)C(=O)N[C@@H](CC(N)=O)C(=O)N[C@@H](CO)C(N)=O` [GLGKFLHSAKRFGKAFVGEAMNS], the MIC was 75 µM (≈ 184 µg/mL) in experiment [1], over 75 µM in experiment [2] and over 75 µM in experiment [3].
For the compound `NCC(=O)N[C@@H](CCCN=C(N)N)C(=O)N[C@@H](CCCN=C(N)N)C(=O)N1CCC[C@H]1C(=O)N[C@@H](CCCN=C(N)N)C(=O)N1CCC[C@H]1C(=O)N[C@@H](CCCN=C(N)N)C(=O)N1CCC[C@H]1C(=O)N[C@@H](CCCN=C(N)N)C(=O)N1CCC[C@H]1C(=O)N[C@@H](Cc1ccccc1)C(=O)N[C@@H](Cc1ccccc1)C(=O)N[C@@H](Cc1ccccc1)C(=O)N[C@@H](Cc1ccccc1)C(=O)O` [GRRPRPRPRPFFFF], the MIC was found to be 40 µM (≈ 73.3 µg/mL) in experiment [4], 80 µM (≈ 147 µg/mL) in experiment [5] and 160 µM (≈ 293 µg/mL) in experiment [6].
Consider `CC[C@H](C)[C@H](N)C(=O)N[C@@H](CC(N)=O)C(=O)N[C@@H](Cc1c[nH]c2ccccc12)C(=O)N[C@@H](CCCCN)C(=O)N[C@@H](CCCCN)C(=O)N[C@H](C(=O)N[C@@H](C)C(=O)N[C@@H](CO)C(=O)N[C@H](C(=O)NCC(=O)N[C@@H](CCCCN)C(=O)N[C@@H](CCC(=O)O)C(=O)N[C@H](C(=O)N[C@@H](CC(C)C)C(=O)N[C@@H](CCCCN)C(=O)N[C@@H](C)C(=O)N[C@@H](CC(C)C)C(N)=O)C(C)C)[C@@H](C)CC)[C@@H](C)CC` [INWKKIASIGKEVLKAL], for which the MIC is 7.3 µM and 5 µM and 2.5 µM in experiment [1]; 25.8 µM (≈ 49.3 µg/mL) in experiment [2]; 86.6 µM (≈ 165 µg/mL) in experiment [3].
On to `CC[C@H](C)[C@H](NC(=O)[C@H](CCCCN)NC(=O)[C@H](C)NC(=O)CNC(=O)[C@@H](NC(=O)[C@H](CCCCN)NC(=O)[C@@H](NC(=O)[C@H](CCCCN)NC(=O)[C@H](C)NC(=O)CNC(=O)[C@H](Cc1c[nH]c2ccccc12)NC(=O)[C@H](CCCCN)NC(=O)[C@@H](NC(=O)[C@H](CCCCN)NC(=O)[C@H](C)NC(=O)CNC(=O)[C@@H](NC(=O)[C@@H](N)CCCCN)[C@@H](C)CC)[C@@H](C)CC)[C@@H](C)CC)[C@@H](C)CC)C(N)=O` [KIGAKIKWGAKIKIGAKI], for which the MIC in experiment [1], in experiment [2] and in experiment [3] was 4.16 µM (≈ 8 µg/mL) each time.
Consider `CC[C@H](C)[C@H](NC(=O)[C@H](C)NC(=O)CNC(=O)[C@H](CCCCN)NC(=O)[C@@H](NC(=O)[C@H](CCCCN)NC(=O)[C@@H](NC(=O)[C@H](C)NC(=O)CNC(=O)[C@H](CCCCN)NC(=O)[C@H](Cc1c[nH]c2ccccc12)NC(=O)[C@H](CCCCN)NC(=O)[C@@H](NC(=O)[C@H](C)NC(=O)CNC(=O)[C@H](CCCCN)NC(=O)[C@@H](NC(=O)[C@@H](N)CCCCN)[C@@H](C)CC)[C@@H](C)CC)[C@@H](C)CC)[C@@H](C)CC)C(N)=O` [KIKGAIKWKGAIKIKGAI], for which the values for the minimum inhibitory concentration (MIC) in experiment [1], in experiment [2] and in experiment [3] were 4.16 µM (≈ 8 µg/mL), 8.32 µM (≈ 16 µg/mL) and 8.32 µM (≈ 16 µg/mL), respectively.
On to `CC[C@H](C)[C@H](NC(=O)[C@H](C)NC(=O)CNC(=O)[C@@H](NC(=O)[C@H](CCCCN)NC(=O)[C@H](CCCCN)NC(=O)[C@@H](NC(=O)[C@H](C)NC(=O)CNC(=O)[C@H](Cc1c[nH]c2ccccc12)NC(=O)[C@H](CCCCN)NC(=O)[C@H](CCCCN)NC(=O)[C@@H](NC(=O)[C@H](C)NC(=O)CNC(=O)[C@@H](NC(=O)[C@H](CCCCN)NC(=O)[C@@H](N)CCCCN)[C@@H](C)CC)[C@@H](C)CC)[C@@H](C)CC)[C@@H](C)CC)C(N)=O` [KKIGAIKKWGAIKKIGAI], for which the MIC is 66.5 µM (≈ 128 µg/mL) in experiment [1], over 133 µM in experiment [2] and 66.5 µM (≈ 128 µg/mL) in experiment [3].
Consider `CC[C@H](C)[C@H](NC(=O)[C@H](Cc1ccccc1)NC(=O)[C@H](CO)NC(=O)[C@H](CCCCN)NC(=O)[C@H](Cc1c[nH]c2ccccc12)NC(=O)[C@@H](N)CCCCN)C(=O)N[C@@H](CCCCN)C(=O)N[C@@H](CCCCN)C(=O)N[C@@H](CC(C)C)C(=O)N[C@@H](C)C(=O)N[C@@H](CO)C(=O)N[C@@H](CCCCN)C(=O)N[C@@H](Cc1ccccc1)C(=O)N[C@@H](CC(C)C)C(=O)N[C@@H](Cc1cnc[nH]1)C(=O)N[C@@H](CO)C(=O)N[C@@H](C)C(=O)N[C@@H](CCCCN)C(=O)N[C@@H](CCCCN)C(=O)N[C@@H](Cc1ccccc1)C(N)=O` [KWKSFIKKLASKFLHSAKKF], for which the minimum inhibitory concentration (MIC) in experiment [3] came to 5.16 µM (≈ 12.5 µg/mL).
Turning to `CC[C@H](C)[C@H](NC(=O)[C@H](Cc1ccccc1)NC(=O)[C@H](CO)NC(=O)[C@H](CCCCN)NC(=O)[C@H](Cc1c[nH]c2ccccc12)NC(=O)[C@@H](N)CCCCN)C(=O)N[C@@H](CCCCN)C(=O)N[C@@H](CCCCN)C(=O)N[C@@H](CC(C)C)C(=O)N[C@H](C(=O)N[C@@H](CO)C(=O)N[C@@H](CCCCN)C(=O)N[C@@H](Cc1ccccc1)C(=O)N[C@@H](CC(C)C)C(=O)N[C@@H](Cc1cnc[nH]1)C(=O)N[C@@H](CO)C(=O)N[C@@H](C)C(=O)N[C@@H](CCCCN)C(=O)N[C@@H](CCCCN)C(=O)N[C@@H](CC(N)=O)C(N)=O)[C@@H](C)O` [KWKSFIKKLTSKFLHSAKKN], the MIC in experiment [3] came out at 2.58 µM (≈ 6.25 µg/mL).
For the compound `CC[C@H](C)[C@H](NC(=O)[C@H](CCSC)NC(=O)[C@H](C)NC(=O)[C@@H]1CCCN1C(=O)[C@@H](NC(=O)[C@@H](NC(=O)[C@H](CCCCN)NC(=O)[C@@H](NC(=O)[C@H](CC(C)C)NC(=O)CNC(=O)CNC(=O)[C@@H](N)CC(C)C)[C@@H](C)CC)[C@@H](C)CC)C(C)C)C(=O)N[C@H]1CSSC[C@@H](C(=O)O)NC(=O)[C@H](CCCCN)NC(=O)[C@H](CCCCN)NC(=O)[C@H]([C@@H](C)O)NC(=O)[C@H](C(C)C)NC(=O)[C@H](C)NC1=O` [LGGLIKIVPAMICAVTKKC], the MIC in experiment [4] is 131 µM (≈ 256 µg/mL); in experiment [5], over 131 µM; in experiment [6], 131 µM (≈ 256 µg/mL).
In the case of `CC[C@H](C)[C@H](NC(=O)[C@H](CCCCN)NC(=O)[C@H](CCCCN)NC(=O)[C@@H](N)CCC(N)=O)C(=O)N[C@@H](CCCN=C(N)N)C(=O)N[C@H](C(=O)N[C@@H](CCCN=C(N)N)C(=O)N[C@@H](C)C(=O)N[C@@H](CO)C(=O)N[C@@H](C)C(=O)O)C(C)C` [QKKIRVRASA], the MIC in experiment [4], in experiment [5] and in experiment [6] was over 55.3 µM throughout.
Regarding `CC[C@H](C)[C@H](NC(=O)[C@H](CCCCN)NC(=O)[C@H](CCCCN)NC(=O)[C@@H](N)CCC(N)=O)C(=O)N[C@@H](CCCN=C(N)N)C(=O)N[C@H](C(=O)N[C@@H](CCCN=C(N)N)C(=O)N[C@@H](CC(C)C)C(=O)N[C@@H](C)C(=O)N[C@@H](C)C(=O)O)C(C)C` [QKKIRVRLAA], the values for the MIC in experiment [4], in experiment [5] and in experiment [6] were over 54.1 µM, 13.5 µM (≈ 16 µg/mL) and 13.5 µM (≈ 16 µg/mL), respectively.
Consider `CC[C@H](C)[C@H](NC(=O)[C@H](Cc1c[nH]c2ccccc12)NC(=O)[C@H](CCCN=C(N)N)NC(=O)[C@H](CCC(N)=O)NC(=O)[C@@H](NC(=O)[C@H](Cc1c[nH]c2ccccc12)NC(=O)[C@H](CCCN=C(N)N)NC(=O)[C@@H](N)CCCN=C(N)N)C(C)C)C(=O)N[C@@H](CCCN=C(N)N)C(=O)N[C@@H](CCCN=C(N)N)C(=O)N[C@@H](Cc1c[nH]c2ccccc12)C(=O)N[C@@H](CCCN=C(N)N)C(=O)N[C@@H](CCCCN)C(=O)N[C@@H](Cc1c[nH]c2ccccc12)C(=O)N[C@H](C(=O)O)C(C)C` [RRWVQRWIRRWRKWV], for which the MIC in experiment [2] and in experiment [3] was 20 µM (≈ 45.4 µg/mL) in each case.
In experiment [7], `CC[C@H](C)[C@H](NC(=O)CNC(=O)[C@H](CC(C)C)NC(=O)[C@@H](NC(=O)[C@H](Cc1ccc(O)cc1)NC(=O)[C@@H](NC(=O)[C@H](CO)NC(=O)[C@@H](NC(=O)[C@@H]1CCCN1C(=O)[C@@H](NC(=O)[C@@H](N)CO)C(C)C)[C@@H](C)O)C(C)C)[C@@H](C)O)C(=O)N[C@@H](CCCCN)C(=O)N[C@H](C(=O)N[C@@H](CC(C)C)C(=O)N[C@@H](Cc1c[nH]c2ccccc12)C(=O)N[C@@H](CO)C(=O)N[C@@H](C)C(=O)N[C@@H](Cc1ccc(O)cc1)C(=O)N[C@@H](CCCCN)C(=O)N[C@@H](Cc1cnc[nH]1)C(=O)O)[C@@H](C)CC` [SVPTSVYTLGIKILWSAYKH] gave an MIC of 50 µM (≈ 113 µg/mL).
`CC(C)C[C@H](NC(=O)[C@H](Cc1ccc(O)cc1)NC(=O)[C@H](Cc1ccc(O)cc1)NC(=O)CNC(=O)[C@H](Cc1c[nH]c2ccccc12)NC(=O)[C@@H](N)CO)C(=O)NCC(=O)N[C@@H](CCCCN)C(=O)N[C@@H](CCCCN)C(=O)N[C@@H](C)C(=O)N[C@@H](CCCN=C(N)N)C(=O)N[C@@H](Cc1c[nH]c2ccccc12)C(=O)N[C@@H](CC(N)=O)C(=O)N[C@@H](CC(C)C)C(=O)N[C@@H](CCCCN)C(=O)N[C@@H](Cc1cnc[nH]1)C(=O)N1CCC[C@H]1C(=O)N[C@@H](Cc1ccc(O)cc1)C(=O)N[C@H](C(=O)N[C@@H](CCC(N)=O)C(=O)N[C@@H](Cc1ccccc1)C(=O)O)C(C)C` [SWGYYLGKKARWNLKHPYVQF]: the MIC in experiment [7] was over 50 µM.
As for `CC(C)C[C@H](NC(=O)[C@H](Cc1ccc(O)cc1)NC(=O)[C@H](Cc1ccc(O)cc1)NC(=O)CNC(=O)[C@H](Cc1c[nH]c2ccccc12)NC(=O)[C@@H](N)CO)C(=O)NCC(=O)O` [SWGYYLG], in experiment [7], the MIC is over 50 µM.
